For one assay, the target named is GLP-1R ECD (Homo sapiens, UniProt P43220). As to the kind of experiment: SPR binding affinity for GLP-1R extracellular domain (Biacore 8K). Particulars: Table 1, peptides 01-12. How it is done:
Surface Plasmon Resonance (SPR) measurements were performed with Biacore 8K (GE Health, Boston, MA, USA) for evaluating the associating affinity peptides for GLP1R ECD. Experimental details were carried out according to the Biacore 8K user’s manual.
(In SPR one partner is held on a chip, and binding of the other changes the refractive index at the surface.)

Another assay deals with Human GLP-1R (Homo sapiens, UniProt P43220). Description: In vitro GLP-1R activation, human receptor. Type of assay: cell-based. The settings on record: mean ± SD.
In a further assay the target is T1, Mouse GLP-1R (Mus musculus, UniProt O35659).
T1 sequence (O35659 22-463): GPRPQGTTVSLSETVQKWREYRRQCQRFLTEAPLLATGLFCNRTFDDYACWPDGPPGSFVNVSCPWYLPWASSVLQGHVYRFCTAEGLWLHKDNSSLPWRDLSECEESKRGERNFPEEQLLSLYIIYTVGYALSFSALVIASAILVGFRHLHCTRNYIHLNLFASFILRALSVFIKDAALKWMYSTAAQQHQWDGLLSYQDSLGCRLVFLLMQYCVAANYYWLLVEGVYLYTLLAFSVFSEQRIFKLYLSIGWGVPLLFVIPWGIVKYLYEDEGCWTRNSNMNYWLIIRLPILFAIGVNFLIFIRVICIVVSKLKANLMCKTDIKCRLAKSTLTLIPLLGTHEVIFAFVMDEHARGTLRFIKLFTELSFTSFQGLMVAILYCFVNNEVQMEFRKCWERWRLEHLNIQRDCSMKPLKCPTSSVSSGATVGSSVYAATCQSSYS
As to the kind of experiment: In vitro GLP-1R activation, mouse receptor. Type of assay: cell-based. The settings on record: mean ± SD.

Ends that are not written are not given here.

GLP-1R ECD, sequence (P43220 24-139 limits assumed): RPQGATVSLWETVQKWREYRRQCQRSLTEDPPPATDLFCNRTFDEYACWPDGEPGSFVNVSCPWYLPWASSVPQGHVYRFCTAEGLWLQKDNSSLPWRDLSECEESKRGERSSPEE
Human GLP-1R, sequence (P43220 24-463): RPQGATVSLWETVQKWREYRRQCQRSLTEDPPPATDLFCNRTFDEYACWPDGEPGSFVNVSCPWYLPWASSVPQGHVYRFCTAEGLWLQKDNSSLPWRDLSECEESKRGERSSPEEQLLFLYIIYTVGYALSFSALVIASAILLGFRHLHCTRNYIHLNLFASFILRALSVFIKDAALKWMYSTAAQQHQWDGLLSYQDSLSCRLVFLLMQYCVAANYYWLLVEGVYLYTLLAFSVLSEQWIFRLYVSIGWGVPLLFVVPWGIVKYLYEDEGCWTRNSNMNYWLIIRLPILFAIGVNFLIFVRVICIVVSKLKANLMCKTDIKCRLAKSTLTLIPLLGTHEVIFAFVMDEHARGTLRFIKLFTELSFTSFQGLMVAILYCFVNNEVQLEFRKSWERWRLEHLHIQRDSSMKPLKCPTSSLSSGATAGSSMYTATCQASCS

The Kd is the concentration at which binding is half-saturated. High values mean lower affinity, low ones higher affinity. With KQYSSPTAWLVG [PEP03], the Kd at GLP-1R ECD came to 1.75 µM. With `CC[C@H](C)[C@H](NC(=O)[C@H](Cc1ccccc1)NC(=O)[C@@H](N)CCC(=O)O)C(=O)N[C@@H](C)C(=O)N[C@H](C(=O)N[C@@H](C)C(=O)N[C@@H](Cc1c[nH]c2ccccc12)C(=O)N[C@@H](CC(C)C)C(=O)N[C@H](C(=O)N[C@@H](CCCCN)C(=O)N[C@@H](CCC(N)=O)C(=O)N[C@H](C(=O)O)[C@@H](C)O)C(C)C)[C@@H](C)O` [PEP06], the dissociation constant (Kd) at GLP-1R ECD is 2.59 µM. As usually defined, the EC50 is the concentration giving half of the maximal effect. A lower EC50 goes with higher potency in that assay. Broadly, the Emax is the size of the effect at its maximum, as opposed to the concentration needed. Regarding `CC(C)C[C@H](NC(=O)[C@H](CCCCN)NC(=O)[C@H](C)NC(=O)[C@H](CO)NC(=O)[C@@H]1CCCN1C(=O)[C@H](CO)NC(=O)[C@H](CO)NC(=O)[C@H](Cc1ccc(O)cc1)NC(=O)[C@H](Cc1ccccc1)NC(=O)[C@@H](N)Cc1ccccc1)C(=O)N[C@@H](CCC(=O)O)C(=O)N[C@H](C(=O)NCC(=O)NCC(=O)N1CCC[C@H]1C(=O)N[C@@H](CO)C(=O)N[C@@H](CO)C(=O)NCC(=O)N[C@@H](C)C(=O)N1CCC[C@H]1C(=O)N1CCC[C@H]1C(=O)N1CCC[C@H]1C(=O)N[C@@H](CO)C(N)=O)[C@@H](C)O` [PEP13], the values for the EC50 on Human GLP-1R and at Mouse GLP-1R were 64 ± 22 pM and 51 ± 9 pM, respectively. Also, the Emax at Human GLP-1R was 96 ± 4.1%; on Mouse GLP-1R, 110 ± 9.4%. On to `CC(C)C[C@H](NC(=O)[C@H](Cc1ccc(O)cc1)NC(=O)[C@H](C)NC(=O)[C@H](CO)NC(=O)[C@@H]1CCCN1C(=O)[C@H](CO)NC(=O)[C@H](CO)NC(=O)[C@H](Cc1ccc(O)cc1)NC(=O)[C@H](Cc1ccccc1)NC(=O)[C@@H](N)Cc1ccccc1)C(=O)N[C@@H](CCC(=O)O)C(=O)N[C@H](C(=O)O)[C@@H](C)O` [PEP01], for which the Kd at GLP-1R ECD is 0.74 µM. This counts as sub-micromolar.

Turning to `CC(C)C[C@H](NC(=O)[C@H](Cc1ccc(O)cc1)NC(=O)[C@H](CO)NC(=O)[C@H](CO)NC(=O)[C@@H](NC(=O)CNC(=O)[C@H](CCC(=O)O)NC(=O)[C@H](CO)NC(=O)[C@@H](NC(=O)[C@@H](N)Cc1ccccc1)[C@@H](C)O)[C@@H](C)O)C(=O)N[C@@H](CCC(=O)O)C(=O)N[C@H](C(=O)O)[C@@H](C)O` [PEP04], the Kd at GLP-1R ECD came out at 3.99 µM.

These data come from paper PMC6412877 (Molecules, 2019).
